Assay results as given in PubChem BioAssay (NCI).
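1) Cells in 96-well plates. 2) Compound, 48 h, 5 concentrations. 3) Linear interpolation between surrounding doses. 4) Unreached endpoint = highest concentration. At the GI50, growth is halved. TGI marks complete inhibition of growth.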

Tests used:
Experiment in all cases: NCI anticancer screen, dose series, 48 h
RXF 393 renal = system: RXF 393 renal
HCT-116 colon = system: HCT-116 colon
U251 CNS = system: U251 CNS
TK-10 renal = system: TK-10 renal
EKVX NSCLC = system: EKVX NSCLC
SNB-19 CNS = system: SNB-19 CNS
PC-3 prostate = system: PC-3 prostate
786-0 renal = system: 786-0 renal
DU-145 prostate = system: DU-145 prostate
SF-295 CNS = system: SF-295 CNS

## CCOC(=O)C1CCC(=O)N1C(=O)c1ccccc1Cl (stereo not given)
RXF 393 renal
  TGI: > 100 µM
HCT-116 colon
  TGI: > 100 µM
U251 CNS
  TGI: > 100 µM
TK-10 renal
  TGI: > 100 µM
EKVX NSCLC
  TGI: > 100 µM
SNB-19 CNS
  TGI: > 100 µM
PC-3 prostate
  TGI: > 100 µM
786-0 renal
  TGI: > 100 µM
DU-145 prostate
  TGI: > 100 µM
SF-295 CNS
  TGI: > 100 µM

## CN(C)c1ccc(Cc2cc3c(O)ccc(O)c3cc(Cc3ccc(N(C)C)cc3)c2=O)cc1
RXF 393 renal
  TGI: 31.9 µM
HCT-116 colon
  TGI: 40.8 µM
U251 CNS
  TGI: 41.4 µM
TK-10 renal
  TGI: 33.6 µM
EKVX NSCLC
  TGI: 44.2 µM
SNB-19 CNS
  TGI: > 63.4 µM
PC-3 prostate
  TGI: 32.7 µM
786-0 renal
  TGI: 32.1 µM
DU-145 prostate
  TGI: > 60 µM
SF-295 CNS
  TGI: > 100 µM

## O=C(/C=C/c1ccc2c(c1)OCO2)Cc1nc2ccccc2[nH]c1=O
RXF 393 renal
  TGI: 33.6 µM
HCT-116 colon
  TGI: > 100 µM
U251 CNS
  TGI: 34.2 µM
TK-10 renal
  TGI: 34.2 µM
EKVX NSCLC
  TGI: > 100 µM
SNB-19 CNS
  TGI: 49.4 µM
PC-3 prostate
  TGI: 47.9 µM
786-0 renal
  TGI: 32.5 µM
DU-145 prostate
  TGI: 71.6 µM
SF-295 CNS
  TGI: 52.7 µM

## O=C1CS(=O)(=O)C(c2cccc(Oc3ccccc3)c2)N1c1cc(Cl)ccc1Cl (stereo not given)
HCT-116 colon
  TGI: 41.9 µM
U251 CNS
  TGI: 29.1 µM
TK-10 renal
  TGI: 90.6 µM
EKVX NSCLC
  TGI: > 100 µM
SNB-19 CNS
  TGI: 57 µM
PC-3 prostate
  TGI: 32 µM
786-0 renal
  TGI: 34.8 µM
DU-145 prostate
  TGI: 43.3 µM
SF-295 CNS
  TGI: 62.1 µM

## COc1ccc(Oc2cnn(C(Br)(Br)C(C)=O)c(=O)c2Br)cc1
RXF 393 renal
  TGI: 16.8 µM
HCT-116 colon
  TGI: 19.2 µM
U251 CNS
  TGI: 27.8 µM
TK-10 renal
  TGI: 26.3 µM
EKVX NSCLC
  TGI: 36.1 µM
SNB-19 CNS
  TGI: 56.8 µM
PC-3 prostate
  TGI: 27.4 µM
786-0 renal
  TGI: 27.4 µM
DU-145 prostate
  TGI: 42.2 µM
SF-295 CNS
  TGI: 51.6 µM

## CC1(C)OC2COC3([C@@H]4OC(C)(C)O[C@@H]4CO)OC(C)(C)OC3C2O1 (stereo not given in full)
RXF 393 renal
  TGI: > 100 µM
HCT-116 colon
  TGI: > 100 µM
U251 CNS
  TGI: > 100 µM
EKVX NSCLC
  TGI: > 100 µM
SNB-19 CNS
  TGI: > 100 µM
PC-3 prostate
  TGI: > 100 µM
786-0 renal
  TGI: > 100 µM
DU-145 prostate
  TGI: > 100 µM
SF-295 CNS
  TGI: > 100 µM

## CCN(CCCl)c1cc(CN(C)C)cc(NC(=O)c2ccc(C(=O)Nc3cccc(CN(C)C)c3)cc2)c1
RXF 393 renal
  TGI: 0.82 µM
HCT-116 colon
  TGI: 14.4 µM
U251 CNS
  TGI: 0.667 µM
TK-10 renal
  TGI: 9.94 µM
SNB-19 CNS
  TGI: 1.34 µM
PC-3 prostate
  TGI: 0.733 µM
786-0 renal
  TGI: 2.35 µM
DU-145 prostate
  TGI: 42.6 µM
SF-295 CNS
  TGI: 13.2 µM

## O=C1OC(c2ccccc2)N(C(=O)c2ccccc2)C1Cc1ccc(OCc2ccccc2)cc1 (stereo not given)
HCT-116 colon
  TGI: > 100 µM
U251 CNS
  TGI: > 100 µM
TK-10 renal
  TGI: > 100 µM
EKVX NSCLC
  TGI: > 100 µM
SNB-19 CNS
  TGI: > 100 µM
PC-3 prostate
  TGI: > 100 µM
786-0 renal
  TGI: > 100 µM
DU-145 prostate
  TGI: > 100 µM

## COc1ccc(-n2nc(C)c3c(Nc4ccc(NC(=O)Nc5ccc(Cl)c(C(F)(F)F)c5)cc4)ncnc32)cc1
RXF 393 renal
  GI50: 0.617 µM
  TGI: 2.17 µM
HCT-116 colon
  GI50: 1.21 µM
  TGI: 3.35 µM
U251 CNS
  GI50: 1.15 µM
  TGI: 3.08 µM
TK-10 renal
  GI50: 2.88 µM
  TGI: 12.3 µM
EKVX NSCLC
  GI50: 2.19 µM
  TGI: 5.55 µM
SNB-19 CNS
  GI50: 2.49 µM
  TGI: 7.88 µM
PC-3 prostate
  GI50: 1.16 µM
  TGI: 3.95 µM
DU-145 prostate
  GI50: 3.33 µM
  TGI: > 100 µM
SF-295 CNS
  GI50: 1.58 µM
  TGI: 3.49 µM

## C[C@H]1OC(=O)[C@@H]2N=NN(Cc3ccccc3)[C@H]12
RXF 393 renal
  TGI: > 100 µM
HCT-116 colon
  TGI: > 100 µM
U251 CNS
  TGI: > 100 µM
TK-10 renal
  TGI: > 100 µM
SNB-19 CNS
  TGI: > 100 µM
PC-3 prostate
  TGI: > 100 µM
786-0 renal
  TGI: > 100 µM
DU-145 prostate
  TGI: > 100 µM
SF-295 CNS
  TGI: > 100 µM

## O=C(CC(=O)Nc1ccccc1)NNC(c1cc(N=Nc2ccc(Br)cc2)ccc1O)P(O)O (stereo not given)
RXF 393 renal
  TGI: > 10 µM
HCT-116 colon
  TGI: 5.64 µM
U251 CNS
  TGI: > 10 µM
TK-10 renal
  TGI: > 10 µM
SNB-19 CNS
  TGI: > 10 µM
PC-3 prostate
  TGI: > 10 µM
786-0 renal
  TGI: > 10 µM
DU-145 prostate
  TGI: > 10 µM
SF-295 CNS
  TGI: > 10 µM

## COc1ccc(N2C(=O)C3c4[nH]c5ccccc5c4C4CCCCCCCCCC4C3C2=O)cc1 (stereo not given)
RXF 393 renal
  TGI: > 10 µM
HCT-116 colon
  TGI: > 10 µM
U251 CNS
  TGI: > 10 µM
TK-10 renal
  TGI: > 10 µM
EKVX NSCLC
  TGI: > 10 µM
SNB-19 CNS
  TGI: > 10 µM
PC-3 prostate
  TGI: > 10 µM
DU-145 prostate
  TGI: > 10 µM
SF-295 CNS
  TGI: > 10 µM

## O=C(O)/C=C\C(=O)Nc1ccc(S(=O)(=O)c2ccc(NC(=O)/C=C\C(=O)O)cc2)cc1
HCT-116 colon
  TGI: > 100 µM
U251 CNS
  TGI: > 100 µM
TK-10 renal
  TGI: > 100 µM
EKVX NSCLC
  TGI: > 100 µM
SNB-19 CNS
  TGI: > 100 µM
786-0 renal
  TGI: > 100 µM
SF-295 CNS
  TGI: > 100 µM

## O=[N+]([O-])c1cccc2c(N=Nc3ccc4ccccc4c3O)c(O)cc(S(=O)(=O)O)c12
RXF 393 renal
  TGI: > 100 µM
HCT-116 colon
  TGI: > 100 µM
U251 CNS
  TGI: > 100 µM
TK-10 renal
  TGI: > 100 µM
EKVX NSCLC
  TGI: > 100 µM
SNB-19 CNS
  TGI: > 100 µM
PC-3 prostate
  TGI: > 100 µM
786-0 renal
  TGI: > 100 µM
SF-295 CNS
  TGI: > 100 µM

## CSc1nc2c(ncn2C2OC(CO)C(O)C(O)C2O)c(=O)[nH]1 (stereo not given)
RXF 393 renal
  TGI: > 100 µM
HCT-116 colon
  TGI: > 100 µM
U251 CNS
  TGI: > 100 µM
EKVX NSCLC
  TGI: > 100 µM
SNB-19 CNS
  TGI: > 100 µM
SF-295 CNS
  TGI: > 100 µM

## O=[N+]([O-])/C(Cl)=C(\NCCN/C(C(Cl)=C(Cl)Cl)=C(/Cl)[N+](=O)[O-])C(Cl)=C(Cl)Cl
HCT-116 colon
  TGI: > 100 µM
U251 CNS
  TGI: > 100 µM
TK-10 renal
  TGI: > 100 µM
EKVX NSCLC
  TGI: > 100 µM
SNB-19 CNS
  TGI: > 100 µM
PC-3 prostate
  TGI: > 100 µM
786-0 renal
  TGI: > 100 µM
DU-145 prostate
  TGI: > 100 µM
SF-295 CNS
  TGI: > 100 µM

## Cc1cccc(/C(Br)=C2/OC(=O)c3ccccc32)c1
RXF 393 renal
  TGI: > 100 µM
HCT-116 colon
  TGI: > 100 µM
U251 CNS
  TGI: > 100 µM
TK-10 renal
  TGI: > 100 µM
EKVX NSCLC
  TGI: > 100 µM
PC-3 prostate
  TGI: > 100 µM
786-0 renal
  TGI: > 100 µM
DU-145 prostate
  TGI: > 100 µM
SF-295 CNS
  TGI: > 100 µM

## COC(=O)N1N=C(c2ccccc2)C1c1ccccc1 (stereo not given)
RXF 393 renal
  TGI: > 100 µM
HCT-116 colon
  TGI: > 100 µM
U251 CNS
  TGI: > 100 µM
TK-10 renal
  TGI: > 100 µM
EKVX NSCLC
  TGI: > 100 µM
SNB-19 CNS
  TGI: > 100 µM
PC-3 prostate
  TGI: > 100 µM
786-0 renal
  TGI: > 100 µM
DU-145 prostate
  TGI: > 100 µM

## CON(C)C(=O)C1CCCO1 (stereo not given)
HCT-116 colon
  TGI: > 100 µM
U251 CNS
  TGI: > 100 µM
TK-10 renal
  TGI: > 100 µM
EKVX NSCLC
  TGI: > 100 µM
SNB-19 CNS
  TGI: > 100 µM
PC-3 prostate
  TGI: > 100 µM
786-0 renal
  TGI: > 100 µM
DU-145 prostate
  TGI: > 100 µM
SF-295 CNS
  TGI: > 100 µM

## O=C1C2=Nc3ccccc3C(O)(C(=O)O)N2c2ccccc21 (stereo not given)
RXF 393 renal
  TGI: > 100 µM
HCT-116 colon
  TGI: 59.7 µM
U251 CNS
  TGI: > 100 µM
TK-10 renal
  TGI: > 100 µM
EKVX NSCLC
  TGI: > 100 µM
PC-3 prostate
  TGI: 20 µM
786-0 renal
  TGI: > 100 µM
DU-145 prostate
  TGI: 29.8 µM
SF-295 CNS
  TGI: 39.9 µM

## COc1ccc([C@H]2C=[N+]([O-])O[C@H](OC3CCCC3)[C@@H]2OC(C)=O)cc1OC
RXF 393 renal
  TGI: 29.8 µM
U251 CNS
  TGI: > 100 µM
TK-10 renal
  TGI: 68.2 µM
EKVX NSCLC
  TGI: 50.2 µM
SNB-19 CNS
  TGI: > 100 µM
PC-3 prostate
  TGI: > 100 µM
DU-145 prostate
  TGI: 89.6 µM
SF-295 CNS
  TGI: > 100 µM
